Results from US20060121083A1 (priority 2003, published 2006).
In brackets after ≈: the same amount, converted by molar mass. Square brackets hold non-standard residues; d marks the D form. Peptide text beside a SMILES is read from it. * marks the point of attachment. Lauroyl = CCCCCCCCCCCC(=O)*; 12Ado = NCCCCCCCCCCCC(=O)O; Decanoyl = CCCCCCCCCC(=O)*; Octanoyl = CCCCCCCC(=O)*; Hexanoyl = CCCCCC(=O)*; Butyryl = CCCC(=O)*

System: S. aureus
Assay: MIC assayed against S. aureus (Table 1)
Format: cell-based

| SMILES | MIC (minimal inhibitory concentration) [µM] |
| --- | --- |
| CC(=O)N[C@@H](C)C(=O)N[C@@H](CC(C)C)C(=O)N[C@@H](Cc1c[nH]c2ccccc12)C(=O)N[C@@H](CCCCN)C(=O)N[C@H](C(=O)N[C@@H](CC(C)C)C(=O)N[C@@H](CC(C)C)C(=O)N[C@@H](CCCCN)C(=O)N[C@@H](CCCCN)C(=O)N[C@H](C(=O)N[C@@H](CC(C)C)C(=O)N[C@@H](CCCCN)C(=O)N[C@@H](C)C(N)=O)C(C)C)[C@@H](C)O [SEQ ID NO: 1, C2—, —CONH2] (Ac-ALWKTLLKKVLKA-NH2) | 25 (≈ 38.8 µg/mL) |
| CCCC(=O)N[C@@H](C)C(=O)N[C@@H](CC(C)C)C(=O)N[C@@H](Cc1c[nH]c2ccccc12)C(=O)N[C@@H](CCCCN)C(=O)N[C@H](C(=O)N[C@@H](CC(C)C)C(=O)N[C@@H](CC(C)C)C(=O)N[C@@H](CCCCN)C(=O)N[C@@H](CCCCN)C(=O)N[C@H](C(=O)N[C@@H](CC(C)C)C(=O)N[C@@H](CCCCN)C(=O)N[C@@H](C)C(N)=O)C(C)C)[C@@H](C)O [SEQ ID NO: 1, C4—, —CONH2] (Butyryl-ALWKTLLKKVLKA-NH2) | 12 (≈ 19 µg/mL) |
| CCCCCC(=O)N[C@@H](C)C(=O)N[C@@H](CC(C)C)C(=O)N[C@@H](Cc1c[nH]c2ccccc12)C(=O)N[C@@H](CCCCN)C(=O)N[C@H](C(=O)N[C@@H](CC(C)C)C(=O)N[C@@H](CC(C)C)C(=O)N[C@@H](CCCCN)C(=O)N[C@@H](CCCCN)C(=O)N[C@H](C(=O)N[C@@H](CC(C)C)C(=O)N[C@@H](CCCCN)C(=O)N[C@@H](C)C(N)=O)C(C)C)[C@@H](C)O [SEQ ID NO: 1, C6—, —CONH2] (Hexanoyl-ALWKTLLKKVLKA-NH2) | 2.2 ± 0.8 (≈ 3.54 µg/mL) |
| CCCCCCCC(=O)N[C@@H](C)C(=O)N[C@@H](CC(C)C)C(=O)N[C@@H](Cc1c[nH]c2ccccc12)C(=O)N[C@@H](CCCCN)C(=O)N[C@H](C(=O)N[C@@H](CC(C)C)C(=O)N[C@@H](CC(C)C)C(=O)N[C@@H](CCCCN)C(=O)N[C@@H](CCCCN)C(=O)N[C@H](C(=O)N[C@@H](CC(C)C)C(=O)N[C@@H](CCCCN)C(=O)N[C@@H](C)C(N)=O)C(C)C)[C@@H](C)O [SEQ ID NO: 1, C8—, —CONH2] (Octanoyl-ALWKTLLKKVLKA-NH2) | 1.5 (≈ 2.46 µg/mL) |
| CCCCCCCCCC(=O)N[C@@H](C)C(=O)N[C@@H](CC(C)C)C(=O)N[C@@H](Cc1c[nH]c2ccccc12)C(=O)N[C@@H](CCCCN)C(=O)N[C@H](C(=O)N[C@@H](CC(C)C)C(=O)N[C@@H](CC(C)C)C(=O)N[C@@H](CCCCN)C(=O)N[C@@H](CCCCN)C(=O)N[C@H](C(=O)N[C@@H](CC(C)C)C(=O)N[C@@H](CCCCN)C(=O)N[C@@H](C)C(N)=O)C(C)C)[C@@H](C)O [SEQ ID NO: 1, C10—, —CONH2] (Decanoyl-ALWKTLLKKVLKA-NH2) | 1.5 (≈ 2.5 µg/mL) |
| CCCCCCCCCCCC(=O)N[C@@H](C)C(=O)N[C@@H](CC(C)C)C(=O)N[C@@H](Cc1c[nH]c2ccccc12)C(=O)N[C@@H](CCCCN)C(=O)N[C@H](C(=O)N[C@@H](CC(C)C)C(=O)N[C@@H](CC(C)C)C(=O)N[C@@H](CCCCN)C(=O)N[C@@H](CCCCN)C(=O)N[C@H](C(=O)N[C@@H](CC(C)C)C(=O)N[C@@H](CCCCN)C(=O)N[C@@H](C)C(N)=O)C(C)C)[C@@H](C)O [SEQ ID NO: 1, C12—, —CONH2] (Lauroyl-ALWKTLLKKVLKA-NH2) | 4.5 ± 1.5 (≈ 7.62 µg/mL) |
| CC(C)C[C@H](NC(=O)[C@H](C)NC(=O)CCCCCCCCCCCN)C(=O)N[C@@H](Cc1c[nH]c2ccccc12)C(=O)N[C@@H](CCCCN)C(=O)N[C@H](C(=O)N[C@@H](CC(C)C)C(=O)N[C@@H](CC(C)C)C(=O)N[C@@H](CCCCN)C(=O)N[C@@H](CCCCN)C(=O)N[C@H](C(=O)N[C@@H](CC(C)C)C(=O)N[C@@H](CCCCN)C(=O)N[C@@H](C)C(N)=O)C(C)C)[C@@H](C)O [SEQ ID NO: 1, NC12—, —CONH2] (H-[12Ado]ALWKTLLKKVLKA-NH2) | 0.75 (≈ 1.28 µg/mL) |
| CC(C)C[C@H](NC(=O)[C@H](Cc1c[nH]c2ccccc12)NC(=O)[C@H](CCCCN)NC(=O)[C@@H](NC(=O)[C@H](CC(C)C)NC(=O)[C@H](CC(C)C)NC(=O)[C@H](CCCCN)NC(=O)[C@H](CCCCN)NC(=O)[C@@H](NC(=O)[C@H](CC(C)C)NC(=O)[C@H](CCCCN)NC(=O)[C@H](C)NC(=O)CCCCCCCCCCCN)C(C)C)[C@@H](C)O)C(=O)N[C@@H](C)C(N)=O [SEQ ID NO: 2, NC12—, —CONH2] | 1.5 (≈ 2.56 µg/mL) |
| CC(C)C[C@H](NC(=O)[C@H](C)NC(=O)[C@H](CCCCN)NC(=O)CCCCCCCCCCCN)C(=O)N[C@@H](Cc1c[nH]c2ccccc12)C(=O)N[C@@H](CCCCN)C(=O)N[C@H](C(=O)N[C@@H](CC(C)C)C(=O)N[C@@H](CC(C)C)C(=O)N[C@@H](CCCCN)C(=O)N[C@@H](CCCCN)C(=O)N[C@H](C(=O)N[C@@H](CC(C)C)C(=O)N[C@@H](CCCCN)C(=O)N[C@@H](C)C(N)=O)C(C)C)[C@@H](C)O [SEQ ID NO: 3, NC12—, —CONH2] | 1.5 (≈ 2.75 µg/mL) |
| CCCCCCCCCCCC(=O)N[C@@H](C)C(=O)N[C@@H](CC(C)C)C(=O)N[C@@H](Cc1c[nH]c2ccccc12)C(=O)N[C@@H](CCCCN)C(=O)N[C@H](C(=O)N[C@@H](CC(C)C)C(=O)N[C@@H](CC(C)C)C(=O)N[C@@H](CCCCN)C(=O)N[C@@H](CCCCN)C(=O)N[C@H](C(N)=O)C(C)C)[C@@H](C)O [SEQ ID NO: 4, C12, —CONH2] (Lauroyl-ALWKTLLKKV-NH2) | 3 (≈ 4.14 µg/mL) |
| CCCCCCCCCCCC(=O)N[C@H](C(=O)N[C@@H](CC(C)C)C(=O)N[C@@H](CC(C)C)C(=O)N[C@@H](CCCCN)C(=O)N[C@@H](CCCCN)C(=O)N[C@H](C(=O)N[C@@H](CC(C)C)C(=O)N[C@@H](CCCCN)C(=O)N[C@@H](C)C(N)=O)C(C)C)[C@@H](C)O [SEQ ID NO: 5, C12, —CONH2] (Lauroyl-TLLKKVLKA-NH2) | 1.5 ± 0.75 (≈ 1.79 µg/mL) |
